In patent publication US20120328569A1, “INHIBITORS OF HEPATITIS C VIRUS NS5B POLYMERASE” (priority 2010, published 2012) one finds IC50 data, which are given here for 25 compounds.

The test system of this assay is HCV genotype 1b replicon. The experiment in a line: HCV replicon assay, cell ELISA with antibody to replicon-encoded NS3/4A (genotype 1b replicon). The assay is classed as cell-based, hepatitis C virus. The settings on record: Hepatitis C virus, 96 h, read-out: Replicon 1b IC50 (nM), HCV genotype 1b replicon cells, 96 hours incubation, NS3/4A ELISA readout. The method, then: The HCV NS5B inhibitory activity of the present compounds may be tested using assays known in the art. The HCV NS5B polymerase inhibitors described herein have activities in a genotype 1b replicon assay as described in the Examples. The assay is performed by incubating a replicon harboring cell-line in the presence of inhibitor for a set period of time and measuring the effect of the inhibitor on HCV replicon replication either directly by quantifying replicon RNA level, or indirectly by measuring enzymatic activity of a co-encoded reporter enzyme such as luciferase or β-lactamase. By performing a series of such measurements at different inhibitor concentrations, the effective inhibitory concentration of the inhibitor (EC50 or EC90) is determined. See Jan M. Vrolijk et al., A replicons-based bioassay for the measurement of interferons in patients with chronic hepatitis C, 110 J. VIROLOGICAL METHODS 201 (2003). Such assays may also be run in an automated format for high through-put screening. See Paul Zuck et al., A cell-based β-lactamase reporter gene assay for the identification of inhibitors of hepatitis C virus replication, 334 ANALYTICAL BIOCHEMISTRY 344 (2004).
Measurement of inhibition by compounds was performed using the HCV replicon system. Several different replicons encoding different HCV genotypes or mutations were used. In addition, potency measurements were made using different formats of the replicon assay, including different ways of measurements and different plating formats. See Jan M. Vrolijk et al., A replicons-based bioassay for the measurement of interferons in patients with chronic hepatitis C, 110 J. VIROLOGICAL METHODS 201 (2003); Steven S. Carroll et al., Inhibition of Hepatitis C Virus RNA Replication by 2′-Modified Nucleoside Analogs, 278(14) J. BIOLOGICAL CHEMISTRY 11979 (2003). However, the underlying principles are common to all of these determinations, and are outlined below.
Stable neomycin phosphotransferase encoding replicons-harboring cell lines were used, so all cell lines were maintained under G418 selection prior to the assay. Potency was determined using a cell ELISA assay with an antibody to the replicons encoded NS3/4a protease. See Caterina Trozzi et al., In Vitro Selection and Characterization of Hepatitis C Virus Serine Protease Variants Resistant to an Active-Site Peptide Inhibitor, 77(6) J. Virol. 3669 (2003). To initiate an assay, replicon cells were plated in the presence of a dilution series of test compound in the absence of G418. Typically, the assays were performed in a 96-well plate formate for manual operation, or a 384-well plate format for automated assay. Replicon cells and compound were incubated for 96 hours. At the end of the assay, cells were washed free of media and compound, and the cells were then lysed. RNA was quantified indirectly through detection of replicon-encoded NS3/4A protein levels, through an ELISA-based assay with an antibody specific for NS3/4A. IC50 determinations were calculated as a percentage of a DMSO control by fitting the data to a four-parameter fit function and the data obtained is provided in the table below.
A general note: In antiviral work, replicon cells carry a viral genome segment that copies itself.
Regarding `CNC(=O)c1c(-c2ccc(F)cc2)oc2cc(N(C)S(C)(=O)=O)c(-c3ccccc3)cc12` [Example 1, 2-(4-fluorophenyl)-N-methyl-6-[methyl(methylsulfonyl)amino]-5-phenyl-1-benzofuran-3-carboxamide], the IC50 worked out at 120 nM. In the case of `CNC(=O)c1c(-c2ccc(F)cc2)oc2cc(N(CCO)S(C)(=O)=O)c(-c3ccccc3)cc12` [Example 2, 2-(4-fluorophenyl)-6-[(2-hydroxyethyl) (methylsulfonyl)amino]-N-methyl-5-phenyl-1-benzofuran-3-carboxamide] it was 114 nM. In the case of `CNC(=O)c1c(-c2ccc(F)cc2)oc2cc(N(CCN(C)c3ccccc3)S(C)(=O)=O)c(-c3ccccc3)cc12` [Example 3, 2-(4-fluorophenyl)-N-methyl-6-[{2-[methyl(phenyl)amino]ethyl} (methylsulfonyl)amino]-5-phenyl-1-benzofuran-3-carboxamide], the IC50 worked out at 80 nM. As to `CNC(=O)c1c(-c2ccc(F)cc2)oc2cc(N(C(C)c3ccccc3)S(C)(=O)=O)c(-c3ccccc3)cc12` (stereo not shown) [Example 4, 2-(4-fluorophenyl)-N-methyl-6-[(methylsulfonyl) (1-phenylethyl)amino]-5-phenyl-1-benzofuran-3-carboxamide], the IC50 turned out to be 703 nM.

Turning to `CCN(c1cc2oc(-c3ccc(F)cc3)c(C(=O)NC)c2cc1-c1ccccc1)S(C)(=O)=O` [Example 5, 6-[ethyl (methylsulfonyl)amino]-2-(4-fluorophenyl)-N-methyl-5-phenyl-1-benzofuran-3-carboxamide], the IC50 came out at 47 nM.

For the compound `CNC(=O)c1c(-c2ccc(F)cc2)oc2cc(N(CCCc3ccccc3)S(C)(=O)=O)c(-c3ccccc3)cc12` [Example 6, 2-(4-fluorophenyl)-N-methyl-6-[(methylsulfonyl) (3-phenylpropyl)amino]-5-phenyl-1-benzofuran-3-carboxamide], the IC50 is 118 nM. As for `CONC(=O)c1c(-c2ccc(F)cc2)oc2cc(N(CCN(C)c3ccccc3)S(C)(=O)=O)c(-c3ccccc3)cc12` [Example 8, 2-(4-fluorophenyl)-N-methoxy-6-[{2-[methyl(phenyl)amino]ethyl} (methylsulfonyl)amino]-5-phenyl-1-benzofuran-3-carboxamide], the figure is 276 nM. As for `CCN(c1cc2oc(-c3ccc(F)cc3)c(C(=O)NOC)c2cc1-c1ccccc1)S(C)(=O)=O` [Example 9, 6-[ethyl (methylsulfonyl)amino]-2-(4-fluorophenyl)-N-methoxy-5-phenyl-1-benzofuran-3-carboxamide], the figure is 99 nM; as for `CONC(=O)c1c(-c2ccc(F)cc2)oc2cc(N(CCCc3ccccc3)S(C)(=O)=O)c(-c3ccccc3)cc12` [Example 10, 2-(4-fluorophenyl)-N-methoxy-6-[(methylsulfonyl) (3-phenylpropyl)amino]-5-phenyl-1-benzofuran-3-carboxamide], 221 nM.

Turning to `CNC(=O)c1c(-c2ccc(F)cc2)oc2cc(N(CC3CCCCC3)S(C)(=O)=O)c(-c3ccccc3)cc12` [Example 13, 6-[(cyclohexylmethyl)(methylsulfonyl)amino]-2-(4-fluorophenyl)-N-methyl-5-phenyl-1-benzofuran-3-carboxamide], the IC50 was determined as 84 nM.

Turning to `CNC(=O)c1c(-c2ccc(F)cc2)oc2cc(N(CC(C)C)S(C)(=O)=O)c(-c3ccccc3)cc12` [Example 16, 2-(4-fluorophenyl)-N-methyl-6-[(2-methylpropyl) (methylsulfonyl)amino]-5-phenyl-1-benzofuran-3-carboxamide], the IC50 is 68 nM. `CCCCN(c1cc2oc(-c3ccc(F)cc3)c(C(=O)NC)c2cc1-c1ccccc1)S(C)(=O)=O` [Example 17, 6-[butyl (methylsulfonyl)amino]-2-(4-fluorophenyl)-N-methyl-5-phenyl-1-benzofuran-3-carboxamide]: the IC50 turned out to be 48 nM. In the case of `CNC(=O)c1c(-c2ccc(F)cc2)oc2cc(N(CCC(C)C)S(C)(=O)=O)c(-c3ccccc3)cc12` [Example 18, 2-(4-fluorophenyl)-N-methyl-6-[(3-methylbutyl) (methylsulfonyl)amino]-5-phenyl-1-benzofuran-3-carboxamide] it was 41 nM. In the case of `CCC(C)CN(c1cc2oc(-c3ccc(F)cc3)c(C(=O)NC)c2cc1-c1ccccc1)S(C)(=O)=O` (stereo not shown) [Example 19, 2-(4-fluorophenyl)-N-methyl-6-[(2-methylbutyl) (methylsulfonyl)amino]-5-phenyl-1-benzofuran-3-carboxamide] it was 227 nM. In the case of `CCCCCN(c1cc2oc(-c3ccc(F)cc3)c(C(=O)NC)c2cc1-c1ccccc1)S(C)(=O)=O` [Example 20, 2-(4-fluorophenyl)-N-methyl-6-[(methylsulfonyl) (pentyl)amino]-5-phenyl-1-benzofuran-3-carboxamide] it was 66 nM; in that of `CNC(=O)c1c(-c2ccc(F)cc2)oc2cc(N(CC3CCC3)S(C)(=O)=O)c(-c3ccccc3)cc12` [Example 21, 6-[(cyclobutylmethyl) (methylsulfonyl)amino]-2-(4-fluorophenyl)-N-methyl-5-phenyl-1-benzofuran-3-carboxamide], 115 nM.

Turning to `CNC(=O)c1c(-c2ccc(F)cc2)oc2cc(N(C3CCCC3)S(C)(=O)=O)c(-c3ccccc3)cc12` [Example 22, 6-[cyclopentyl (methylsulfonyl)amino]-2-(4-fluorophenyl)-N-methyl-5-phenyl-1-benzofuran-3-carboxamide], the IC50 was found to be 55 nM. As for `CCC(CC)CN(c1cc2oc(-c3ccc(F)cc3)c(C(=O)NC)c2cc1-c1ccccc1)S(C)(=O)=O` [Example 23, 6-[(2-ethylbutyl) (methylsulfonyl)amino]-2-(4-fluorophenyl)-N-methyl-5-phenyl-1-benzofuran-3-carboxamide], the figure is 374 nM.

For `CCCCCCN(c1cc2oc(-c3ccc(F)cc3)c(C(=O)NC)c2cc1-c1ccccc1)S(C)(=O)=O` [Example 24, 2-(4-fluorophenyl)-6-[hexyl (methylsulfonyl)amino]-N-methyl-5-phenyl-1-benzofuran-3-carboxamide], the IC50 amounted to 182 nM. Take `CNC(=O)c1c(-c2ccc(F)cc2)oc2cc(N(CCCC(C)C)S(C)(=O)=O)c(-c3ccccc3)cc12` [Example 25, 2-(4-fluorophenyl)-N-methyl-6-[(4-methylpentyl) (methylsulfonyl)amino]-5-phenyl-1-benzofuran-3-carboxamide]: the IC50 turned out to be 166 nM. In the case of `CNC(=O)c1c(-c2ccc(F)cc2)oc2cc(N(CCC3CCCCC3)S(C)(=O)=O)c(-c3ccccc3)cc12` [Example 27, 6-[(2-cyclohexylethyl) (methylsulfonyl)amino]-2-(4-fluorophenyl)-N-methyl-5-phenyl-1-benzofuran-3-carboxamide], the IC50 worked out at 384 nM. In the case of `CNC(=O)c1c(-c2ccc(F)cc2)oc2cc(N(CCCO)S(C)(=O)=O)c(-c3ccccc3)cc12` [Example 28, 2-(4-fluorophenyl)-6-[(3-hydroxypropyl) (methylsulfonyl)amino]-N-methyl-5-phenyl-1-benzofuran-3-carboxamide] it was 46 nM. As for `CNC(=O)c1c(-c2ccc(F)cc2)oc2cc(N(CC(C)O)S(C)(=O)=O)c(-c3ccccc3)cc12` (stereo not shown) [Example 29, 2-(4-fluorophenyl)-6-[(2-hydroxypropyl) (methylsulfonyl)amino]-N-methyl-5-phenyl-1-benzofuran-3-carboxamidc], the figure is 412 nM; as for `CNC(=O)c1c(-c2ccc(F)cc2)oc2cc(N(CCCCOC(C)=O)S(C)(=O)=O)c(-c3ccccc3)cc12` [Example 30, 4-{[2-(4-fluorophenyl)-3-(methylcarbamoyl)-5-phenyl-1-benzofuran-6-yl] (methylsulfonyl)amino}butyl acetate], 40 nM; as for `C#CCN(c1cc2oc(-c3ccc(F)cc3)c(C(=O)NC)c2cc1-c1ccccc1)S(C)(=O)=O` [Example 34, 2-(4-fluorophenyl)-N-methyl-6-[(methylsulfonyl) (prop-2-yn-1-yl)amino]-5-phenyl-1-benzofuran-3-carboxamide], 189 nM.
